Experiments:
[1] = Dissolution in buffered aqueous solution; assay type: physicochemical
[2] = TEM imaging of negatively stained dodeca-5,7-diynoyl phosphonic acid vesicles (size); assay type: physicochemical
Protocol: Twice the value of the CMC determined for n-dodecanephosphonic acid (2.94×10^−4 M)^4 was used to assure aggregate formation in these experiments due to the limited amount of the final product. All samples were prepared in the manner described by Schulz, supra, using solutions buffered to a pH of 5.5 with 5 mM MES.
Samples prepared in the above manner were imaged using TEM by negatively staining the samples with 1% uranyl acetate. FIG. 2 is a picture of unpolymerized vesicles of dodeca-5,7-diynoyl phosphonic acid within four days of their initial preparation. It appears from this micrograph that the aggregates are small and relatively spherical compared to the fully saturated aggregates of n-dodecanephosphonic acid prepared as described hereinbelow. The average size of these vesicles is roughly 50 nm in diameter with the sizes of individual aggregates ranging from 4 nm to over 400 nm. […] This behavior was only observed with freshly prepared aggregates prior to their exposure to light. One explanation for this behavior is that it represents an artifact of drying the sample in the presence of the metal stain used to visualize it.
FIG. 3 is a micrograph of the same sample after one week. It is noteworthy that the vesicles are still spherical though they now appear to be smaller and have a more irregular exterior surface. […] Moreover, there was no evidence of the rolled cylinders previously imaged in the fresh aggregate solutions.

[3] = pH stability of n-dodecanephosphonic acid aggregates; assay type: physicochemical; settings: minimal structural changes
Protocol: (§1) An aggregate was prepared using n-dodecanephosphonic acid. Specifically, a 3×10^−4 molar (on average) solution of n-dodecanephosphonic acid was used, which was prepared by adding 17 mg dodecanephosphonic acid to 250 mL of a 5 mM solution of morpholinoethanesulfonic acid (MES) buffer solution. This solution was heated in a boiling water bath for 40-60 minutes. The solution was then cooled and allowed to sit undisturbed for 3 days (following Shulz' procedure (21)). This preparation was used to produce the desired micelles and the reported critical micelle concentration (CMC) was independently confirmed through measurement of the surface tension by means of a Wilhelmy Plate Balance (22). […] It has also been determined that these aggregates are stable over the pH range of 4-6, with minimal structural changes.

[4] = reported value, independently confirmed by surface tension measurement; cited from earlier work
[5] = TEM size of n-dodecanephosphonic acid aggregates, metal-free and metallated with iron salts; assay type: physicochemical; settings: metal-free aggregates, 3×10^−4 molar in 5 mM MES
Protocol: as §1
The choice of biologically compatible metal ion used to bind to the micelle exterior directly influences the size and the shape of the resulting aggregates. Iron (III) salts are preferred because they are relatively inexpensive, readily available in several simple forms and known to be biologically compatible. However, other metal ions may be used if desired, including, without limitation, Zr (IV), Mg(II), Ca(II), Co(II) and Zn(II) salts. […]

average size of aggregates (diameter) ([2]; same sample after one week)	largest vesicles present in the sample ([2]; same sample after one week)	average size of vesicles (diameter) ([2]; unpolymerized vesicles, within four days of preparation, pH 5.5, 5 mM MES)	pH range over which aggregates are stable [3]	average diameter of aggregates [5]	Structure (SMILES)	solubility in buffered aqueous solutions [1]	critical micelle concentration (CMC) [4]
~50 nm	≤ 100 nm	roughly 50 nm	–	–	CCCCC#CC#CCCCC(=O)P(=O)(O)O [dodeca-5,7-diynoyl phosphonic acid, Dodeca-5,7-diynoyl phosphonic acid]	readily dissolves in buffered aqueous solutions to form vesicles	–
–	–	–	4-6	20-120 nm	CCCCCCCCCCCCP(=O)(O)O [n-dodecanephosphonic acid]	–	294 µM
